According to the supplement of paper PMC10307832:

What was measured:
Assay in all cases: relative viability (nuclei count vs DMSO), 5 days (fraction); higher = more cells survive
EHT 1864 + Palbociclib = compound: C1COCCN1CC2=CC(=O)C(=CO2)OCCCCCSC3=C4C=CC(=CC4=NC=C3)C(F)(F)F [EHT 1864] + CC(=O)c1c(C)c2cnc(Nc3ccc(N4CCNCC4)cn3)nc2n(C2CCCC2)c1=O [Palbociclib] (partner 0.5 µM)
Method in brief: (§1)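 Lung cancer cell lines in 1536-well plates were dosed by pin tool the day after seeding, either with one drug alone or with a fixed anchor-drug dose plus five library-drug doses (not always all listed) in √10 steps. After 5 days, cells were fixed and their nuclei stained in one step (final 0.05% Triton X-100, 1% formaldehyde, 1 ug/ml Hoechst), then counted on 4× images. Relative viability is the nuclei count in treated wells divided by that in vehicle wells. Values are medians of duplicate plates.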

EHT 1864 + Crizotinib = compound: C1COCCN1CC2=CC(=O)C(=CO2)OCCCCCSC3=C4C=CC(=CC4=NC=C3)C(F)(F)F [EHT 1864] + C[C@@H](Oc1cc(-c2cnn(C3CCNCC3)c2)cnc1N)c1c(Cl)ccc(F)c1Cl [Crizotinib] (partner 1 µM)
Method in brief: as §1

EHT 1864 + Vorinostat = compound: C1COCCN1CC2=CC(=O)C(=CO2)OCCCCCSC3=C4C=CC(=CC4=NC=C3)C(F)(F)F [EHT 1864] + O=C(CCCCCCC(=O)Nc1ccccc1)NO [Vorinostat] (partner 1 µM)
Method in brief: as §1

EHT 1864 + AZD7762 = compound: C1COCCN1CC2=CC(=O)C(=CO2)OCCCCCSC3=C4C=CC(=CC4=NC=C3)C(F)(F)F [EHT 1864] + NC(=O)Nc1cc(-c2cccc(F)c2)sc1C(=O)N[C@H]1CCCNC1 [AZD7762] (partner 0.2 µM)
Method in brief: as §1

Row | Cell Line | relative viability (EHT 1864 + Palbociclib; first compound 0.04 µM) | relative viability (EHT 1864 + Palbociclib; first compound 0.1265 µM) | relative viability (EHT 1864 + Palbociclib; first compound 0.4 µM) | relative viability (EHT 1864 + Palbociclib; first compound 1.265 µM) | relative viability (EHT 1864 + Palbociclib; first compound 4 µM) | relative viability (EHT 1864 + Crizotinib; first compound 0.04 µM) | relative viability (EHT 1864 + Crizotinib; first compound 0.1265 µM) | relative viability (EHT 1864 + Crizotinib; first compound 0.4 µM) | relative viability (EHT 1864 + Crizotinib; first compound 1.265 µM) | relative viability (EHT 1864 + Crizotinib; first compound 4 µM) | relative viability (EHT 1864 + Vorinostat; first compound 0.04 µM) | relative viability (EHT 1864 + Vorinostat; first compound 0.1265 µM) | relative viability (EHT 1864 + Vorinostat; first compound 0.4 µM) | relative viability (EHT 1864 + Vorinostat; first compound 1.265 µM) | relative viability (EHT 1864 + Vorinostat; first compound 4 µM) | relative viability (EHT 1864 + AZD7762; first compound 0.04 µM) | relative viability (EHT 1864 + AZD7762; first compound 0.1265 µM) | relative viability (EHT 1864 + AZD7762; first compound 0.4 µM) | relative viability (EHT 1864 + AZD7762; first compound 1.265 µM) | relative viability (EHT 1864 + AZD7762; first compound 4 µM)
1 | 201T | 0.345 | 0.36 | 0.353 | 0.307 | 0.356 | 1.05 | 1.03 | 1 | 0.984 | 1 | 0.901 | 0.876 | 1.01 | 0.923 | 0.811 | 0.578 | 0.575 | 0.61 | 0.594 | 0.652
2 | A549 | – | – | – | – | – | 0.659 | 0.739 | 0.742 | 0.669 | 0.601 | – | – | – | – | – | – | – | – | – | –
3 | A-427 | 0.547 | 0.485 | 0.535 | 0.545 | 0.494 | 0.949 | 0.945 | 0.817 | 0.8 | 0.811 | 0.928 | 0.819 | 0.885 | 0.879 | 0.801 | 0.835 | 0.775 | 0.738 | 0.762 | 0.791
4 | ABC-1 | 0.629 | 0.631 | 0.692 | 0.687 | 0.577 | 1.35 | 1.03 | 0.991 | 0.733 | 0.759 | 1.22 | 0.978 | 0.928 | 1.07 | 1.12 | 0.977 | 0.805 | 0.623 | 0.843 | 1.52
5 | BEN | 0.468 | 0.493 | 0.472 | 0.435 | 0.47 | 0.979 | 0.775 | 0.753 | 0.885 | 0.964 | 0.528 | 0.579 | 0.636 | 0.648 | 0.57 | 0.681 | 0.632 | 0.86 | 0.665 | 0.802
6 | CAL-12T | 0.409 | 0.357 | 0.459 | 0.518 | 0.443 | 0.722 | 0.635 | 0.663 | 0.653 | 0.831 | 0.671 | 0.553 | 0.644 | 0.775 | 0.812 | 0.689 | 0.543 | 0.624 | 0.517 | 0.516
7 | COR-L23 | 0.336 | 0.216 | 0.336 | 0.283 | 0.272 | 0.684 | 0.559 | 0.59 | 0.552 | 0.596 | 0.476 | 0.333 | 0.476 | 0.435 | 0.433 | – | – | – | – | –
8 | COR-L 105 | 0.362 | 0.417 | 0.411 | 0.414 | 0.41 | 0.614 | 0.732 | 1.05 | 0.774 | 0.74 | 0.99 | 0.699 | 0.949 | 0.847 | 0.778 | – | – | – | – | –
9 | Calu-6 | – | – | – | – | – | 0.763 | 0.767 | 0.676 | 0.748 | 0.733 | – | – | – | – | – | – | – | – | – | –
10 | ChaGo-K-1 | 0.946 | 0.904 | 0.951 | 0.852 | 0.911 | 1.14 | 1.15 | 1.12 | – | 1.01 | 0.785 | 0.76 | 0.72 | 0.811 | 0.76 | 0.881 | 0.834 | 0.956 | 0.871 | 0.907
11 | EBC-1 | – | – | – | – | – | 0.18 | 0.181 | 0.219 | 0.205 | 0.196 | – | – | – | – | – | – | – | – | – | –
12 | EKVX | 0.351 | 0.401 | 0.441 | 0.292 | 0.374 | 1.05 | 0.721 | 0.857 | 0.947 | 0.855 | 0.749 | 0.524 | 0.69 | 0.743 | 0.631 | 0.685 | 0.661 | 0.484 | 0.764 | 0.684
13 | EMC-BAC-2 | 0.528 | 0.491 | 0.52 | 0.492 | 0.518 | 0.752 | 0.616 | 0.72 | 0.749 | 0.817 | 0.45 | 0.383 | 0.503 | 0.427 | 0.504 | 1.24 | 0.944 | 1.1 | 1.09 | 0.974
14 | EPLC-272H | 0.356 | 0.353 | 0.317 | 0.33 | 0.352 | 0.928 | 0.861 | 0.855 | 0.915 | 1.01 | 0.454 | 0.565 | 0.567 | 0.662 | 0.33 | 0.387 | 0.379 | 0.267 | 0.259 | 0.236
15 | H3255 | 0.298 | 0.322 | 0.306 | 0.31 | 0.312 | 0.683 | 0.65 | 0.938 | 0.817 | 1 | 0.752 | 0.717 | – | 0.851 | 0.794 | 0.797 | 0.795 | 0.995 | 0.867 | 1.04
16 | HARA | 0.269 | 0.226 | 0.215 | 0.26 | 0.291 | 0.964 | 1 | 1.08 | 1.04 | 0.902 | 0.514 | 0.366 | 0.715 | 0.582 | 0.229 | 0.626 | – | 0.329 | 0.262 | 0.328
17 | HCC-15 | 0.76 | – | 0.78 | 0.682 | 0.72 | 0.752 | 0.635 | 0.801 | 0.82 | 0.821 | 0.77 | – | 0.838 | 0.81 | 0.929 | 1.01 | – | 1.29 | 1.36 | 1.19
18 | HCC-44 | 0.985 | 0.999 | 0.94 | 0.899 | 0.918 | 0.799 | 0.751 | 0.693 | 0.653 | 0.858 | 1.08 | 0.984 | 1.06 | 1.08 | 1.13 | 1.01 | 0.896 | 0.934 | 1.03 | 1.01
19 | HCC-78 | 0.414 | 0.568 | 0.46 | 0.493 | 0.478 | 0.349 | 0.32 | 0.353 | 0.342 | 0.319 | 0.377 | 0.429 | 0.421 | 0.429 | 0.467 | 0.82 | 0.59 | 0.67 | 0.602 | 0.422
